Data published in patent US10787444B2, “Compounds for the modulation of myc activity” (Syros Pharmaceuticals, Inc., priority 2015, dated 2020).
Structures can show the parent of a compound that is named as a salt. Where two headings read alike, the source gives them in different places.

Legend:
c-Myc/Max/Ebox DNA = molecular target: T1, c-Myc/Max/Ebox DNA (Homo sapiens, UniProt P01106); assay: c-Myc/Max/Ebox DNA AlphaScreen Assay; type: binding; conditions: calculated IC50 class
T1 construct: his6 (cleaved yes)
T1 sequence (P01106 whole entry): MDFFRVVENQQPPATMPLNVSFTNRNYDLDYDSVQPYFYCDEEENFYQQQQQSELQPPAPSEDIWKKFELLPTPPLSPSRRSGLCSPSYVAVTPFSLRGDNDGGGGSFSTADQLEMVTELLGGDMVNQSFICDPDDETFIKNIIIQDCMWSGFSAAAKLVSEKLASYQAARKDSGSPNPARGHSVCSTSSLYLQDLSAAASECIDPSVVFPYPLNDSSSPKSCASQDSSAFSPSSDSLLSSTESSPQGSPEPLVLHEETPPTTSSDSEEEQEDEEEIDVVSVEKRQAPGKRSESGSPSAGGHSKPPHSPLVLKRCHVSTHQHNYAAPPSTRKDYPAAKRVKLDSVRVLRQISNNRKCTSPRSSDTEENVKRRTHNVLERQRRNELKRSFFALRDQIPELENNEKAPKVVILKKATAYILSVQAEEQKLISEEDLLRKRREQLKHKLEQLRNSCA
Method in brief: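 Compounds were preincubated with free c-Myc (20 nM), biotinylated single-Ebox DNA (10 nM) and Ni acceptor beads before his6-Max (5 nM) and streptavidin donor beads were added. Buffer was 50 mM HEPES pH 8.0, 150 mM NaCl, BSA, Tween20, glycogen and DTT, with DMSO ≤2%. After 2 h incubation, AlphaScreen signal was read at 680 nm excitation and 520–620 nm emission.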

[1] = system: human small lung cancer cell line H2171; assay: Cell Viability Assay (ATPlite); type: cell-based; conditions: read-out: H2171 Activity
Method in brief: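 Viability readout was ATPlite luminescence, taken after 3 days' incubation at 37° C. Human SCLC H2171 cells (20,000 cells/mL) received compound right after plating, as a 10-point dose response.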

[2] = Homo sapiens, NCI-H2171, 72 h, Table 2, compounds of FIG. 1, H2171 cells, three days, ATPlite, calculated IC50 class
[3] = Homo sapiens, NCI-H2171, 72 h, Table 3, compounds of FIG. 2, H2171 cells, three days, ATPlite, calculated IC50 class
[4] = Table 2, compounds of FIG. 1, H2171 cells, three days, ATPlite, calculated IC50 class

Molecule | IC50 (c-Myc/Max/Ebox DNA; Table 2, compounds of FIG. 1) [nM] | IC50 [1, 2] [nM] | further results
COCCNCCC(=O)Nc1sc2c(c1-c1nc3cc(-c4ccc(C(=O)OC)nc4)ccc3s1)CCNC2 [compound 409] | < 300 | < 300 | 
CC[C@@H](C)NCCC(=O)Nc1sc2c(c1-c1nc3cc(C(F)(F)F)ccc3s1)CCNC2 [Compound 179, (R)-3-(sec-butylamino)-N-(3-(5-(trifluoromethyl)benzo[d]thiazol-2-yl)-4,5,6,7-tetrahydrothieno[2,3-c]pyridin-2-yl)propanamide] | < 300 | < 300 | 
CC(C)N1CCc2c(sc(NC(=O)CCNCc3cnn(C)c3)c2-c2nc3ccccc3s2)C1 [Compound 100, N-(3-(benzo[d]thiazol-2-yl)-6-isopropyl-4,5,6,7-tetrahydrothieno[2,3-c]pyridin-2-yl)-3-(((1-methyl-1H-pyrazol-4-yl)methyl)amino)propanamide] | 300 to 1000 | < 300 | 
CC(C)N1CCc2c(sc(NC(=O)CCN3CCC3)c2-c2nc3ccccc3s2)C1 [Compound 541, 3-(Azetidin-1-yl)-N-(3-(benzo[d]thiazol-2-yl)-6-isopropyl-4,5,6,7-tetrahydrothieno[2,3-c]pyridin-2-yl)propanamide] | 300 to 1000 |  | IC50 ([1]; Homo sapiens, NCI-H2171, 72 h): < 300 nM
CC(=O)Nc1sc2c(c1-c1nc3ccccc3s1)CCC(N)C2 (centres unmarked) [Compound 221, N-(6-amino-3-(benzo[d]thiazol-2-yl)-4,5,6,7-tetrahydrobenzo[b]thiophen-2-yl)acetamide] |  |  | IC50 (c-Myc/Max/Ebox DNA; Table 3, compounds of FIG. 2): > 10000 nM; IC50 [1, 3]: > 10000 nM
COCCNCCC(=O)Nc1sc2c(c1-c1nc3cc(C(F)(F)F)ccc3s1)CC(C)NC2 (single isomer, unassigned) [Compound 551, 3-((2-Methoxyethyl)amino)-N-(5-methyl-3-(5-(trifluoromethyl)benzo[d]thiazol-2-yl)-4,5,6,7-tetrahydrothieno[2,3-c]pyridin-2-yl)propanamide] | < 300 |  | IC50 [1, 4]: < 300 nM
CC(=O)Nc1sc2c(c1-c1nc3ccccc3s1)CCC(NCc1ccncc1)C2 (centres unmarked) [Compound 226, N-(3-(benzo[d]thiazol-2-yl)-6-((pyridin-4-ylmethyl)amino)-4,5,6,7-tetrahydrobenzo[b]thiophen-2-yl)acetamide] |  |  | IC50 (c-Myc/Max/Ebox DNA; Table 3, compounds of FIG. 2): > 10000 nM; IC50 [1, 3]: < 300 nM
CC(C)NCCC(=O)Nc1sc2c(c1-c1nc3cc(C4=CCOCC4)ccc3s1)CCNC2 [compound 165] | < 300 | < 300 | 
CCC(C)NCCC(=O)Nc1sc2c(c1-c1nc3cc(-c4cccnc4)ccc3s1)CCNC2 (centres unmarked) [compound 150] | < 300 | < 300 | 
COCCNCCC(=O)Nc1sc2c(c1-c1nc3c(-n4cnc(C)c4)cccc3s1)CCNC2 [Compound 592, 3-((2-Methoxyethyl)amino)-N-(3-(4-(4-methyl-1H-imidazol-1-yl)benzo[d]thiazol-2-yl)-4,5,6,7-tetrahydrothieno[2,3-c]pyridin-2-yl)propanamide trihydrochloride] | < 300 | < 300 | 
CC(C)NCCC(=O)Nc1sc2c(c1-c1nc3ccccc3s1)CC(C)NC2C (single isomer, unassigned) [Compound 197, N-(3-(benzo[d]thiazol-2-yl)-5,7-dimethyl-4,5,6,7-tetrahydrothieno[2,3-c]pyridin-2-yl)-3-(isopropylamino)propanamide] | 1000 to 10000 |  | IC50 [1, 4]: 300 to 1000 nM
CC(=O)Nc1sc2c(c1-c1nc3ccccc3s1)C[C@@H](C)N[C@H]2C [Compound 218, N-((5R,7S)-3-(benzo[d]thiazol-2-yl)-5,7-dimethyl-4,5,6,7-tetrahydrothieno[2,3-c]pyridin-2-yl)acetamide] |  |  | IC50 (c-Myc/Max/Ebox DNA; Table 3, compounds of FIG. 2): 1000 to 10000 nM; IC50 ([1]; Table 3, compounds of FIG. 2, H2171 cells, three days, ATPlite, calculated IC50 class): < 300 nM
COCCNC(=O)c1ccc2sc(-c3c(NC(=O)CCNC(C)C)sc4c3CCNC4)nc2c1 [Compound 323, 2-(2-(3-(Isopropylamino)propanamido)-4,5,6,7-tetrahydrothieno[2,3-c]pyridin-3-yl)-N-(2-methoxyethyl)benzo[d]thiazole-5-carboxamide] | < 300 | < 300 | 
COCCNCCC(=O)Nc1sc2c(c1-c1nc3ccc(-c4ccc(N5CCNCC5)nc4)cc3s1)CCNC2 [compound 504] | < 300 | < 300 | 
3-(Azetidin-1-yl)-N-(3-(benzo[d]thiazol-2-yl)-6-isopropyl-4,5,6,7-tetrahydrothieno[2,3-c]pyridin-2-yl)propanamide [Compound 541] | 300 to 1000 |  | IC50 [1, 4]: 1000 to 10000 nM
COCCNCCC(=O)Nc1sc2c(c1-c1nc3cc(-c4ccncc4)ccc3s1)CC(C)NC2C (single isomer, unassigned) [Compound 521, N-(5,7-dimethyl-3-(5-(pyridin-4-yl)benzo[d]thiazol-2-yl)-4,5,6,7-tetrahydrothieno[2,3-c]pyridin-2-yl)-3-((2-methoxyethyl)amino)propanamide] | < 300 | < 300 | 

Molecule | IC50 (c-Myc/Max/Ebox DNA; Table 2, compounds of FIG. 1) [nM] | IC50 [1, 2] [nM] | further results
CC(C)N1CCc2c(sc(NC(=O)CCNCc3cn[nH]c3)c2-c2nc3ccccc3s2)C1 [Compound 155, 3-(((1H-pyrazol-4-yl)methyl)amino)-N-(3-(benzo[d]thiazol-2-yl)-6-isopropyl-4,5,6,7-tetrahydrothieno[2,3-c]pyridin-2-yl)propanamide] | < 300 | < 300 | 
COCCNCCC(=O)Nc1sc2c(c1-c1nc3ccc(F)cc3s1)CCNC2 [Compound 318, N-(3-(6-Fluorobenzo[d]thiazol-2-yl)-4,5,6,7-tetrahydrothieno[2,3-c]pyridin-2-yl)-3-((2-methoxyethyl)amino)propanamide] | 300 to 1000 | < 300 | 
COCCNCCC(=O)Nc1sc2c(c1-c1nc3ccccc3s1)CC(C)NC2C (centres unmarked) [Compound 506, N-(3-(Benzo[d]thiazol-2-yl)-5,7-dimethyl-4,5,6,7-tetrahydrothieno[2,3-c]pyridin-2-yl)-3-((2-methoxyethyl)amino)propanamide] | 300 to 1000 |  | IC50 [1, 4]: 1000 to 10000 nM
CC[C@H](C)NCCC(=O)Nc1sc2c(c1-c1nc3cc(-c4ccncc4)ccc3s1)CCN(C1CCC1)C2 [Compound 595, (S)-3-(sec-butylamino)-N-(6-cyclobutyl-3-(5-(pyridin-4-yl)benzo[d]thiazol-2-yl)-4,5,6,7-tetrahydrothieno[2,3-c]pyridin-2-yl)propanamide] | < 300 | 300 to 1000 | 
CC(C)NCCC(=O)Nc1sc2c(c1-c1nc3cc(-n4ccnc4)ccc3s1)CCNC2 [Compound 178, N-(3-(5-(1H-imidazol-1-yl)benzo[d]thiazol-2-yl)-4,5,6,7-tetrahydrothieno[2,3-c]pyridin-2-yl)-3-(isopropylamino)propanamide dihydrochloride] | < 300 | < 300 | 
COCCNCCC(=O)Nc1sc2c(c1-c1nc3cc(-c4cccnc4)ccc3s1)CC(C)NC2C (single isomer, unassigned) [Compound 526, N-(5,7-Dimethyl-3-(5-(pyridin-3-yl)benzo[d]thiazol-2-yl)-4,5,6,7-tetrahydrothieno[2,3-c]pyridin-2-yl)-3-((2-methoxyethyl)amino)propanamide] | 1000 to 10000 |  | IC50 [1, 4]: 300 to 1000 nM
COCCNCCC(=O)Nc1sc2c(c1-c1nc3c(C#N)cccc3s1)CCNC2 [compound 568] | < 300 | < 300 | 
COCCNCCC(=O)Nc1sc2c(c1-c1nc3c(Br)cccc3s1)CCNC2 [compound 559] | < 300 | < 300 | 
COCCNCCC(=O)Nc1sc2c(c1-c1nc3cc(F)ccc3s1)CC(C)NC2C (single isomer, unassigned) [Compound 544, N-(3-(5-Fluorobenzo[d]thiazol-2-yl)-5,7-dimethyl-4,5,6,7-tetrahydrothieno[2,3-c]pyridin-2-yl)-3-((2-methoxyethyl)amino)propanamide] | < 300 | < 300 | 
CCC(C)NCCC(=O)Nc1sc2c(c1-c1nc3ccccc3s1)CCN(C1COC1)C2 (centres unmarked) [Compound 137, N-(3-(benzo[d]thiazol-2-yl)-6-(oxetan-3-yl)-4,5,6,7-tetrahydrothieno[2,3-c]pyridin-2-yl)-3-(sec-butylamino)propanamide] | 1000 to 10000 | > 10000 | 
Cc1cn(-c2ccc3nc(-c4c(NC(=O)CCNC(C)C)sc5c4CCNC5)sc3c2)cn1 [compound 186] | < 300 | < 300 | 
COCCNCCC(=O)Nc1sc2c(c1-c1nc3cc(C(F)(F)F)ccc3s1)CCN(C(C)C)C2 [Compound 575, N-(6-Isopropyl-3-(5-(trifluoromethyl)benzo[d]thiazol-2-yl)-4,5,6,7-tetrahydrothieno[2,3-c]pyridin-2-yl)-3-((2-methoxyethyl)amino) propanamide] | < 300 | < 300 | 
CCC(C)NCCC(=O)N(C)c1sc2c(c1-c1nc3ccccc3s1)CCNC2 (centres unmarked) [Compound 301, N-(3-(benzo[d]thiazol-2-yl)-4,5,6,7-tetrahydrothieno[2,3-c]pyridin-2-yl)-3-(sec-butylamino)-N-methylpropanamide] | 1000 to 10000 | 1000 to 10000 | 
CCC(C)NCCC(=O)Nc1sc2c(c1-c1nc3cc(-c4cn[nH]c4)ccc3s1)CCNC2 (centres unmarked) [compound 151] | < 300 | < 300 | 
CCNCCC(=O)Nc1sc2c(c1-c1nc3ccccc3s1)CCN(C(C)C)C2 [Compound 540, N-(3-(Benzo[d]thiazol-2-yl)-6-isopropyl-4,5,6,7-tetrahydrothieno[2,3-c]pyridin-2-yl)-3-(ethylamino)propanamide] | 300 to 1000 |  | IC50 ([1]; Homo sapiens, NCI-H2171, 72 h): < 300 nM
